Measurements: PubChem BioAssay (NCI)
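GI50 = concentration required for 50% inhibition of growth. TGI denotes the concentration required for complete inhibition of growth.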

Key:
Experiment in all cases: NCI tumour cell line growth inhibition, 384-well format; in the data active means GI50 below about 0.43 µM; inactive means the rest
[1] = tested on: HL-60(TB) leukemia
[2] = tested on: KM12 colon
[3] = tested on: K-562 leukemia
[4] = tested on: SK-MEL-28 melanoma
[5] = tested on: MCF7 breast
[6] = tested on: SN12C renal
[7] = tested on: HCT-116 colon
[8] = tested on: DU-145 prostate
[9] = tested on: HOP-92 NSCLC
[10] = tested on: HCT-15 colon
[11] = tested on: OVCAR-3 ovarian
[12] = tested on: BT-549 breast
[13] = tested on: SR leukemia
[14] = tested on: RPMI-8226 leukemia
[15] = tested on: OVCAR-8 ovarian
[16] = tested on: LOX IMVI melanoma
[17] = tested on: M14 melanoma
[18] = tested on: UO-31 renal
[19] = tested on: HCC-2998 colon
[20] = tested on: COLO 205 colon
[21] = tested on: MDA-MB-468 breast
[22] = tested on: MDA-MB-435 melanoma
[23] = tested on: NCI-H23 lung
[24] = tested on: NCI/ADR-RES ovarian
[25] = tested on: TK-10 renal
[26] = tested on: SK-MEL-5 melanoma
[27] = tested on: HOP-62 NSCLC
[28] = tested on: SK-OV-3 ovarian
[29] = tested on: SK-MEL-2 melanoma
[30] = tested on: IGROV1 ovarian
[31] = tested on: PC-3 prostate
[32] = tested on: SF-539 CNS
[33] = tested on: SW-620 colon
[34] = tested on: SF-295 CNS
[35] = tested on: UACC-257 melanoma
[36] = tested on: HT29 colon
[37] = tested on: CAKI-1 renal
[38] = tested on: NCI-H226 lung
[39] = tested on: MDA-MB-231 breast
[40] = tested on: SF-268 CNS
[41] = tested on: MALME-3M melanoma
[42] = tested on: NCI-H522 lung
[43] = tested on: CCRF-CEM leukemia
[44] = tested on: 786-0 renal
[45] = tested on: A498 renal
[46] = tested on: A549 NSCLC
[47] = tested on: MOLT-4 leukemia
[48] = tested on: NCI-H322M lung
[49] = tested on: ACHN renal
[50] = tested on: RXF 393 renal
[51] = tested on: NCI-H460 NSCLC
[52] = tested on: OVCAR-5 ovarian
[53] = tested on: U251 glioblastoma
[54] = tested on: OVCAR-4 ovarian
[55] = tested on: UACC-62 melanoma
[56] = tested on: T-47D breast

CS[C@@]1(C(=O)Nc2ccc3[nH]nc(-c4ccc(OC(C)C)nc4)c3c2)CCN(CC(=O)N2CC=C(c3ccc(-c4ncn(C)n4)cc3)CC2)C1
active: GI50 [1] 0.0437 µM | GI50 [2] 0.297 µM | GI50 [7] 0.122 µM | GI50 [9] 0.189 µM | GI50 [13] 0.375 µM | GI50 [16] 0.0904 µM | GI50 [17] 0.0125 µM | GI50 [19] 0.0242 µM | GI50 [20] 0.02 µM | GI50 [22] 0.0963 µM | GI50 [23] 0.0171 µM | GI50 [26] 0.0589 µM | GI50 [29] 0.0386 µM | GI50 [33] 0.112 µM | GI50 [35] 0.0167 µM | GI50 [36] 0.0431 µM | GI50 [37] 0.273 µM | GI50 [39] 0.373 µM | GI50 [46] 0.302 µM | GI50 [50] 0.354 µM | GI50 [52] 0.108 µM | GI50 [55] 0.011 µM
1.73 µM: TGI [26]
0.222 µM: TGI [19]
> 100 µM: TGI [2] | TGI [3] | TGI [5] | TGI [6] | TGI [8] | TGI [10] | TGI [11] | TGI [12] | TGI [15] | TGI [18] | TGI [22] | TGI [24] | TGI [25] | TGI [27] | TGI [28] | TGI [30] | TGI [31] | TGI [33] | TGI [34] | TGI [36] | TGI [37] | TGI [40] | TGI [42] | TGI [43] | TGI [44] | TGI [45] | TGI [46] | TGI [48] | TGI [49] | TGI [51] | TGI [52] | TGI [53] | TGI [54] | TGI [56]
0.109 µM: TGI [17]
0.215 µM: TGI [55]
2.44 µM: TGI [14]
2.2 µM: TGI [50]
0.0221 µM: TGI [41]
1.35 µM: TGI [1]
0.194 µM: TGI [20]
0.136 µM: TGI [23]
8.65 µM: TGI [47]
47.8 µM: TGI [32]
34.3 µM: TGI [39]
inactive: GI50 [3] 0.819 µM | GI50 [5] > 100 µM | GI50 [6] 3.37 µM | GI50 [8] 61.6 µM | GI50 [10] 2.82 µM | GI50 [11] 5.37 µM | GI50 [12] 2.03 µM | GI50 [14] 0.536 µM | GI50 [15] 5.37 µM | GI50 [18] 0.81 µM | GI50 [21] 0.907 µM | GI50 [24] 3.77 µM | GI50 [25] 0.561 µM | GI50 [27] 0.476 µM | GI50 [28] 17.2 µM | GI50 [30] 0.514 µM | GI50 [31] 18.8 µM | GI50 [32] 1.36 µM | GI50 [34] 12.8 µM | GI50 [38] 0.595 µM | GI50 [40] > 100 µM | GI50 [42] 7.97 µM | GI50 [43] 5.12 µM | GI50 [44] 1.77 µM | GI50 [45] 2.52 µM | GI50 [47] 2.56 µM | GI50 [48] 0.438 µM | GI50 [49] 2.25 µM | GI50 [51] 0.884 µM | GI50 [53] 1.53 µM | GI50 [54] 1.8 µM | GI50 [56] 5.69 µM
0.207 µM: TGI [29]
4 µM: TGI [13]
2.39 µM: TGI [7]
21.6 µM: TGI [38]
0.0976 µM: TGI [35]
0.267 µM: TGI [16]
7.33 µM: TGI [21]
0.631 µM: TGI [9]
0.0583 µM: TGI [4]
